pIC50: −log10 of the molar value.
Biological target: Maltase-glucoamylase (Homo sapiens, UniProt O43451)
Assay: Inhibition of alpha-glucosidase (unknown origin) using p-nitrophenyl-alpha-D-glucopyranoside as substrate incubated for 10 mins followed by substrate addition and measured after 15 mins by microplate reader analysis

Sequence of Maltase-glucoamylase (O43451 whole entry): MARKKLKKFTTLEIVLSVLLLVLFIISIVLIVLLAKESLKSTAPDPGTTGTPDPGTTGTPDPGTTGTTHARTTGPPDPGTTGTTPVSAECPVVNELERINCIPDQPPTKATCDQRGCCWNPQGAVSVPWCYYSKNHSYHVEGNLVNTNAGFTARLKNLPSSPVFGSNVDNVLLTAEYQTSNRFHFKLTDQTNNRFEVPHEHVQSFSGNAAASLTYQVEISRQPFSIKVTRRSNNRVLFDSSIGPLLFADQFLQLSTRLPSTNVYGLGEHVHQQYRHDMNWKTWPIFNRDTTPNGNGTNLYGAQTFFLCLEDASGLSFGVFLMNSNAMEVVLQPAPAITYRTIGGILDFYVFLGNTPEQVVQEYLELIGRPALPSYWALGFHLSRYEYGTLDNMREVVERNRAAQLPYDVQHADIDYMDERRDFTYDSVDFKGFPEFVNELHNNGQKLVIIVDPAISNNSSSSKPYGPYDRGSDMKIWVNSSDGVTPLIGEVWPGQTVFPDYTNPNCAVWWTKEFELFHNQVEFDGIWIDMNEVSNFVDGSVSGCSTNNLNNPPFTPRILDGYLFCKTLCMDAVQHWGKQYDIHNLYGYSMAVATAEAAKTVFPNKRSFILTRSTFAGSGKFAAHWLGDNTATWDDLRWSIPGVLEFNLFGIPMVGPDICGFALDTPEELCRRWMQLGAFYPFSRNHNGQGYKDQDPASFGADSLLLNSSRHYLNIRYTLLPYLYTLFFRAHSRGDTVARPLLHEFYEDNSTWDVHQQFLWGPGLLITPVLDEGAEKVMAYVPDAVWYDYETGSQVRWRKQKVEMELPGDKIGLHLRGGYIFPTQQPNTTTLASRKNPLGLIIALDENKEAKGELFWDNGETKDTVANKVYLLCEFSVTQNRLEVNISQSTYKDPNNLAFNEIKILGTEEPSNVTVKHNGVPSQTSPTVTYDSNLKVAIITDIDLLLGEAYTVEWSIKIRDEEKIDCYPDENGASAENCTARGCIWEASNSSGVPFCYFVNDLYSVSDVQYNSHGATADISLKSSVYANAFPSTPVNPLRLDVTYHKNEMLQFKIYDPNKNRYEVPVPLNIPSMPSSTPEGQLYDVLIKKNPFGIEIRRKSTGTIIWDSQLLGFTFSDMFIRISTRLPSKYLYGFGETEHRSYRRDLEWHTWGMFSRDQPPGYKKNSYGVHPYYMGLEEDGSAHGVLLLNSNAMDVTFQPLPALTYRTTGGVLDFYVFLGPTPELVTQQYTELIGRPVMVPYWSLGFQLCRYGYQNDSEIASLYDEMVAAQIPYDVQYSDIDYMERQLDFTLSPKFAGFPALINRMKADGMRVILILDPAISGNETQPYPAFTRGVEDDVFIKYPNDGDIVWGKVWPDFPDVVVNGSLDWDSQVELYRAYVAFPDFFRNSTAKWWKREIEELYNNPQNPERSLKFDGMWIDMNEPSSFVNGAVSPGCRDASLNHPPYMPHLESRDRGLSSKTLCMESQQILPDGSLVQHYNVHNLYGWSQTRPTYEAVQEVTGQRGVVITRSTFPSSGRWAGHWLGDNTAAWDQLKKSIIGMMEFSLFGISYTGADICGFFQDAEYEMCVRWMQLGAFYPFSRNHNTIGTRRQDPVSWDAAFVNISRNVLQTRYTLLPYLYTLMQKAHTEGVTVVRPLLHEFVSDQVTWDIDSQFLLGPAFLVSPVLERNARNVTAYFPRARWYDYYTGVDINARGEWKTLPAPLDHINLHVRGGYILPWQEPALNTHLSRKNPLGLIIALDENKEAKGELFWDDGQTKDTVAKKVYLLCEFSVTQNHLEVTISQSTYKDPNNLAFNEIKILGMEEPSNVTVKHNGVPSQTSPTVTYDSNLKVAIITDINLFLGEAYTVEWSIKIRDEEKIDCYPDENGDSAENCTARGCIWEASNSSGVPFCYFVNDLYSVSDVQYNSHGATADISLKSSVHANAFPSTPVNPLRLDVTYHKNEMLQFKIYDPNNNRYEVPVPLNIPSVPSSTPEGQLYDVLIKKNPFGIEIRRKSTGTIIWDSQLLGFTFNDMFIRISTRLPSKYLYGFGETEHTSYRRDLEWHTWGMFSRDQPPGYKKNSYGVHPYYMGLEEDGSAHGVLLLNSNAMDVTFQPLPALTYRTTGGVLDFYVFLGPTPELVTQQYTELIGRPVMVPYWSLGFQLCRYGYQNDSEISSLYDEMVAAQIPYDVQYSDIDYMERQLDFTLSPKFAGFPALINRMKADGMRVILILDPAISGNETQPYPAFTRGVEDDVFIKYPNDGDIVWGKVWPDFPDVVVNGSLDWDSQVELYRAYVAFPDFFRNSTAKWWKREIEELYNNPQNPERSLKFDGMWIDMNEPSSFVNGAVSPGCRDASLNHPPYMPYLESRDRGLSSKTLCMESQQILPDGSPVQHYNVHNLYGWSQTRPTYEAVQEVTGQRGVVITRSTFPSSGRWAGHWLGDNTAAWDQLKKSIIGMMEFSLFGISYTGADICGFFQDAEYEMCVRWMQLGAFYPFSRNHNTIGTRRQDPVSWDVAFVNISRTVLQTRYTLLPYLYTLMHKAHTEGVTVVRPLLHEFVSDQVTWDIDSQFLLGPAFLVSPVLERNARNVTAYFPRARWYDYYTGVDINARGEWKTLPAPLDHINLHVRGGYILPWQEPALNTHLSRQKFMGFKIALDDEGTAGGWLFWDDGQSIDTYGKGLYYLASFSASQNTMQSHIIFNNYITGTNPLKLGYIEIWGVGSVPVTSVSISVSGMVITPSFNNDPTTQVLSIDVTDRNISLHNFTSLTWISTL

Row | pIC50 | Compound
1 | 6.05 | Cc1cc(O)c2c(c1)-c1c(-c3ccc(O)cc3)c(=O)oc3c1c-2c(O)c1cccc(O)c13
2 | 5.80 | Cc1cc(O)c2c(c1)-c1c(-c3c[nH]c4ccccc34)c(=O)oc3c1c-2c(O)c1cccc(O)c13

— BindingDB's records for PubMed 35766919 (Zhejiang University, 2022)
